In this experiment the test system is PI3Kα-WT and PI3Kα-KO MEFs. In words: Mass spectrometry-based phosphoproteomics in MEFs. In kind it is cell-based, mouse. Particulars: for differentially phosphorylated peptides/sites: PI3Kα-WT MEFs. As to the method:
The inventors next investigated the impact of 1938 on cell signalling in an unbiased manner using phosphoproteomics. […] The inventors quantified 10,611 phosphosites from 3,093 proteins of which 9100, 1420 and 91 were pSer, pThr and pTyr residues, respectively (FIG. 16/Extended Data FIG. 8a). […] Compared to vehicle-treated cells, insulin treatment of PI3Kα-WT MEFs induced differential phosphorylation of 11 and 18 sites at 15 min and 4 h, respectively (FIG. 16/Extended Data FIG. 8c). […] Furthermore, approximately half of the 1938-controlled phosphosites have been previously reported (in PhosphoSitePlus) to be regulated by insulin, IGF-1, PI3K inhibition or AKT inhibition, with some linked to regulation by mTOR or PDK1 (FIG. 3gi,ii).
PI3Kα-WT and PI3Kα-KO MEFs, grown in 15 cm dishes, were serum-starved overnight in DMEM with 1% penicillin-streptomycin and stimulated by the addition of 0.05% DMSO, […] 1938 in final 0.05% DMSO or 100 nM insulin (Sigma, 15016) for 15 min or 4 h. Cells were lysed in […] urea lysis buffer [50 mM triethylammonium bicarbonate, 8 M urea, cOmplete™, EDTA-free protease inhibitor cocktail (1:50 dilution) (Roche, 11873580001), 1 PhosSTOP tablet (Roche, 4906845001), 1 mM sodium orthovanadate] and lysates sonicated until clear for ˜10 min with cooling breaks on ice. Protein concentration was measured using a BCA protein assay (Pierce #23227). 300 μg of protein was reduced with 5 mM Tris(2-carboxyethyl)phosphine hydrochloride (Sigma, C4706) at 37° C. for 20 min and alkylated using 10 mM 2-chloroacetamide (Sigma, 22790) for 20 min at room temperature in the dark. Proteins were digested with LysC for 3.5 h at 30° C. […] Fifty percent of each sample was analysed as 10 μl injections. […] Precursor ions were measured in a data-dependent mode in the orbitrap analyser at a resolution of 70,000 and a target value of 3e6 ions. The ten most intense ions from each MS1 scan were isolated, fragmented in the HCD cell, and measured in the Orbitrap at a resolution of 17,500. […]

The source of these data is patent publication US20250263404A1, “AMINOPYRIDINES AS ACTIVATORS OF PI3 KINASE” (UCL Business Ltd, priority 2021, published 2025).

For `CCN1CCN(c2ccc(Nc3cc(Nc4cccc5c4N(C(C)=O)CC5)ccn3)cc2)CC1` [Example 1938], the “signalling impact in PI3Kα-KO MEFs” value (PI3Kα-KO MEFs) is given as “little signalling impact”. Also, the differentially phosphorylated peptides/sites is 27 (15 min treatment) and 50 (4 h treatment).
